pKi: −log10 of the molar value.
Molecular target: MtOMPDC (wildtype OMPDC from Methanothermobacter thermautotrophicus) (Methanothermobacter thermautotrophicus, UniProt O26232)
Assay: OMP decarboxylation followed at […] nm
Assay type: biochemical

MtOMPDC (wildtype OMPDC from Methanothermobacter thermautotrophicus), sequence (O26232 whole entry): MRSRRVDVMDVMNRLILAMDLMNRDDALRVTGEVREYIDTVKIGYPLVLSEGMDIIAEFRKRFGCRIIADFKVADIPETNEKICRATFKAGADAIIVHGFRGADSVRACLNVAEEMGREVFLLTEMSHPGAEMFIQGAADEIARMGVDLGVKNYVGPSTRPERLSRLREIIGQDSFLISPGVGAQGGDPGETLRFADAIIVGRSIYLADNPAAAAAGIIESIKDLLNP

pKi: ~4.00
SMILES: O=c1ccn([C@@H]2O[C@H](COP(=O)(O)O)[C@@H](O)[C@H]2O)c(=O)[nH]1 [UMP, uridine 5′-monophosphate]

From PMC2754381 (Biochemistry, 2009)
